# Reference: paper PMC7614683, “A small molecule PI3Kα activator for cardioprotection and neuroregeneration” (Nature, 2023)
# Biological target: T1, full length p110α/p85α (Homo sapiens, UniProt P42336)
# T1 construct: Full-length human p110α was expressed either in a complex with full-length human p85α (for HTS, biochemistry and HDX-MS); 6xHis tag followed by TEV protease site (N); host or cells: Spodoptera frugiperda Sf9, baculovirus
# Test: HDX-MS
# Type: binding
# Protocol: Sample preparation: HDX-MS experiments were carried out as described previously. […] In total, three biological replicates, i.e. three separate protein preparations, each with exchange experiments carried out in triplicate were conducted. Data presented in the manuscript is a single biological replicate. Data acquisition and analysis were as follows: Each sample was thawed and injected onto an M-Class Acquity UPLC with HDX Technology (Waters) kept at 0.1°C. Proteins were digested in-line using an Enzymate Pepsin Column (Waters, #186007233) at 15°C for 2 min at 200 μl/min. Peptic peptides were then eluted onto an Acquity UPLC BEH C18 Column (Waters, #186002346) equilibrated in Pepsin-A buffer (0.1% formic acid) and separated using a 5-35% gradient of Pepsin-B buffer (0.1% formic acid, 99% acetonitrile) over 7 min at a flowrate of 40 μl/min. Data were collected on a Waters Cyclic IMS, with an electrospray ionisation source, from 50-2000 m/z. Data were collected in the HDMS^E mode. A single pass of the cyclic IMS was conducted. A “blank” sample of protein dilution buffer with quench was run between samples, and carry-over of peptides was routinely monitored. Five replicates were used to identify non-deuterated peptides. Criteria used to include peptides in the HDX-MS dataset were: minimum intensity 5000, minimum sequence length 5, maximum sequence length 25, a minimum of 3 fragment ions, a minimum of 0.1 products per amino acid, a minimum score of 6.62, a maximum MH+ Error of 10 ppm, identification in at least two datasets with a retention time RSD of less than 10%. Data was analysed using Protein Lynx Global Server (Waters) and DynamX (Waters). All peptides were manually inspected for EX1 kinetics and sufficient quality of the peptide envelope. Data quality, experiment design, and reporting of data meets the criteria as determined by the HDX-MS community. Uptake files were created using Baryonyx. Data are available via ProteomeXchange with identifier PXD037721.
# [1] = PK3CA_HUMAN peptide 177-186, time point 1 of 5
# [2] = PK3CA_HUMAN peptide 177-186, time point 2 of 5
# [3] = PK3CA_HUMAN peptide 177-186, time point 3 of 5
# [4] = PK3CA_HUMAN peptide 177-186, time point 4 of 5
# [5] = PK3CA_HUMAN peptide 177-186, time point 5 of 5
# [6] = PK3CA_HUMAN peptide 186-202, time point 1 of 5
# [7] = PK3CA_HUMAN peptide 186-202, time point 2 of 5
# [8] = PK3CA_HUMAN peptide 186-202, time point 3 of 5
# [9] = PK3CA_HUMAN peptide 186-202, time point 4 of 5
# [10] = PK3CA_HUMAN peptide 186-202, time point 5 of 5
# [11] = PK3CA_HUMAN peptide 207-219, time point 1 of 5
# [12] = PK3CA_HUMAN peptide 207-219, time point 2 of 5
# [13] = PK3CA_HUMAN peptide 207-219, time point 3 of 5
# [14] = PK3CA_HUMAN peptide 207-219, time point 4 of 5
# [15] = PK3CA_HUMAN peptide 207-219, time point 5 of 5
# [16] = PK3CA_HUMAN peptide 220-237, time point 1 of 5
# [17] = PK3CA_HUMAN peptide 220-237, time point 2 of 5
# [18] = PK3CA_HUMAN peptide 220-237, time point 3 of 5
# [19] = PK3CA_HUMAN peptide 220-237, time point 4 of 5
# [20] = PK3CA_HUMAN peptide 220-237, time point 5 of 5
# [21] = PK3CA_HUMAN peptide 224-238, time point 1 of 5
# [22] = PK3CA_HUMAN peptide 224-238, time point 2 of 5
# [23] = PK3CA_HUMAN peptide 224-238, time point 3 of 5
# [24] = PK3CA_HUMAN peptide 224-238, time point 4 of 5
# [25] = PK3CA_HUMAN peptide 224-238, time point 5 of 5
# [26] = PK3CA_HUMAN peptide 238-250, time point 1 of 5
# [27] = PK3CA_HUMAN peptide 238-250, time point 2 of 5
# [28] = PK3CA_HUMAN peptide 238-250, time point 3 of 5
# [29] = PK3CA_HUMAN peptide 238-250, time point 4 of 5
# [30] = PK3CA_HUMAN peptide 238-250, time point 5 of 5
# [31] = PK3CA_HUMAN peptide 238-259, time point 1 of 5
# [32] = PK3CA_HUMAN peptide 238-259, time point 2 of 5
# [33] = PK3CA_HUMAN peptide 238-259, time point 3 of 5
# [34] = PK3CA_HUMAN peptide 238-259, time point 4 of 5
# [35] = PK3CA_HUMAN peptide 238-259, time point 5 of 5
# [36] = PK3CA_HUMAN peptide 241-250, time point 1 of 5
# [37] = PK3CA_HUMAN peptide 241-250, time point 2 of 5
# T1 sequence (P42336 whole entry): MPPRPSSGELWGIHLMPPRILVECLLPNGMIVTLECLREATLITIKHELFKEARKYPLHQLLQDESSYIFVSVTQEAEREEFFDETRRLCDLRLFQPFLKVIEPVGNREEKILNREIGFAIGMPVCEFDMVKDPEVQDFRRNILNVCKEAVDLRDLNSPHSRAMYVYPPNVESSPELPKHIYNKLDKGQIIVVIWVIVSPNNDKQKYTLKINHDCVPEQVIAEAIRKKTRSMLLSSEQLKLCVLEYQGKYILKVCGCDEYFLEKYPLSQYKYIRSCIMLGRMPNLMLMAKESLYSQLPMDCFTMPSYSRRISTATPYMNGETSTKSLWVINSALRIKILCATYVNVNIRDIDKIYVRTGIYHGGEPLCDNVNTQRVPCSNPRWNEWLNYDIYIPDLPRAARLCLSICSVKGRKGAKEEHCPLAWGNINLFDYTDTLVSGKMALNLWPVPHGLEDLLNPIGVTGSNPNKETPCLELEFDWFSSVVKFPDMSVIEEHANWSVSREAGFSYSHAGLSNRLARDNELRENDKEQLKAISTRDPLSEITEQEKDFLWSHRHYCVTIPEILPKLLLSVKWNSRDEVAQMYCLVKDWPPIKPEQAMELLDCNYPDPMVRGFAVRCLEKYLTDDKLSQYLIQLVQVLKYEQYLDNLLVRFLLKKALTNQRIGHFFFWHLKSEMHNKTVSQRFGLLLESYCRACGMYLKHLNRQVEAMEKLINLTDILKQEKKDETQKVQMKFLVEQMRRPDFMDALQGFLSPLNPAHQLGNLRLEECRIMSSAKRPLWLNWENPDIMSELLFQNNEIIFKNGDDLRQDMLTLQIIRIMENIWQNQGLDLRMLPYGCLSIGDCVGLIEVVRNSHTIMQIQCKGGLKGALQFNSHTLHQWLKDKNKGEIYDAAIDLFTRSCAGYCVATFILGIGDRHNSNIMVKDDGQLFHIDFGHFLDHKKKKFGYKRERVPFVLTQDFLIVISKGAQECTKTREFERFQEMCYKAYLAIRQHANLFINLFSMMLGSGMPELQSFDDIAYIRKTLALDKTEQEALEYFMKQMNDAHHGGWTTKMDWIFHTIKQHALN
# T1 sequence (P27986 whole entry partner): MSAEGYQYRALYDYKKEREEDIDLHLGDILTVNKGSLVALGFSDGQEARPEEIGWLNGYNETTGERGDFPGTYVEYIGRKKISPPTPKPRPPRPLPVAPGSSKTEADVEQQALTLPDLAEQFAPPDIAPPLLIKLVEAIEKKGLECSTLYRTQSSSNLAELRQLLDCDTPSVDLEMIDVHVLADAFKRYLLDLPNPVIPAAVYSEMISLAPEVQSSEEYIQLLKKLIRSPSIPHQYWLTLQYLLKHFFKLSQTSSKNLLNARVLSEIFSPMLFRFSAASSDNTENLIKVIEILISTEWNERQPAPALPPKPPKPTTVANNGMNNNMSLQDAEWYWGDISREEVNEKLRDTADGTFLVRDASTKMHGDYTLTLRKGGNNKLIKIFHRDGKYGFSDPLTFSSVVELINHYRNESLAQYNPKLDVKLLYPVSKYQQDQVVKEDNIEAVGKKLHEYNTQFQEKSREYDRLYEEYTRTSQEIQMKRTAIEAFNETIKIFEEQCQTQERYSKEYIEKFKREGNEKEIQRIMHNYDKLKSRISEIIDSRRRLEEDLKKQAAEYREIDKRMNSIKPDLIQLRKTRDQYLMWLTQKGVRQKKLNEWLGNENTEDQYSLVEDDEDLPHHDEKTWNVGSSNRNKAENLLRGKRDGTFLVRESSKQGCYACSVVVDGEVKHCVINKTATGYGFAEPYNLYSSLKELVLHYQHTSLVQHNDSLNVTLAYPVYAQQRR
compound,measurement,setting,value
CCN1CCN(c2ccc(Nc3cc(Nc4cccc5c4N(C(C)=O)CC5)ccn3)cc2)CC1 [Compound 1938],changes in HDX-MS protection of PI3Kα,250 μM 1938 or 5 μM BYL719,protection of a region in the C-terminus of the kinase domain consisting of amino acids (AA) 1002-1016 of p110α
same,HDX difference (%D),[1],-1.1%
same,HDX difference (Da),[1],-0.10 Da
same,HDX difference (%D),[2],0.188%
same,HDX difference (Da),[2],0.0169 Da
same,HDX difference (%D),[3],0.0654%
same,HDX difference (Da),[3],0.00589 Da
same,HDX difference (%D),[4],-0.325%
same,HDX difference (Da),[4],-0.03 Da
same,HDX difference (%D),[5],-0.186%
same,HDX difference (Da),[5],-0.0168 Da
same,HDX difference (%D),[6],-0.741%
same,HDX difference (Da),[6],-0.10 Da
same,HDX difference (%D),[7],0.268%
same,HDX difference (Da),[7],0.0349 Da
same,HDX difference (%D),[8],0.253%
same,HDX difference (Da),[8],0.0328 Da
same,HDX difference (%D),[9],-0.11%
same,HDX difference (Da),[9],-0.0143 Da
same,HDX difference (%D),[10],-0.0482%
same,HDX difference (Da),[10],-0.00626 Da
same,HDX difference (%D),[11],-0.6%
same,HDX difference (Da),[11],-0.07 Da
same,HDX difference (%D),[12],0.1%
same,HDX difference (Da),[12],0.0108 Da
same,HDX difference (%D),[13],0.0043%
same,HDX difference (Da),[13],0.000474 Da
same,HDX difference (%D),[14],-0.136%
same,HDX difference (Da),[14],-0.0149 Da
same,HDX difference (%D),[15],-0.4%
same,HDX difference (Da),[15],-0.0435 Da
same,HDX difference (%D),[16],-0.3%
same,HDX difference (Da),[16],-0.0451 Da
same,HDX difference (%D),[17],0.0936%
same,HDX difference (Da),[17],0.014 Da
same,HDX difference (%D),[18],0.319%
same,HDX difference (Da),[18],0.05 Da
same,HDX difference (%D),[19],-0.0933%
same,HDX difference (Da),[19],-0.014 Da
same,HDX difference (%D),[20],-0.152%
same,HDX difference (Da),[20],-0.0229 Da
same,HDX difference (%D),[21],-0.8%
same,HDX difference (Da),[21],-0.0951 Da
same,HDX difference (%D),[22],0.43%
same,HDX difference (Da),[22],0.05 Da
same,HDX difference (%D),[23],0.056%
same,HDX difference (Da),[23],0.00672 Da
same,HDX difference (%D),[24],0.37%
same,HDX difference (Da),[24],0.0444 Da
same,HDX difference (%D),[25],0.9%
same,HDX difference (Da),[25],0.11 Da
same,HDX difference (%D),[26],-0.317%
same,HDX difference (Da),[26],-0.038 Da
same,HDX difference (%D),[27],0.158%
same,HDX difference (Da),[27],0.019 Da
same,HDX difference (%D),[28],0.185%
same,HDX difference (Da),[28],0.0222 Da
same,HDX difference (%D),[29],-0.357%
same,HDX difference (Da),[29],-0.0429 Da
same,HDX difference (%D),[30],0.02%
same,HDX difference (Da),[30],0.00239 Da
same,HDX difference (%D),[31],-0.7%
same,HDX difference (Da),[31],-0.15 Da
same,HDX difference (%D),[32],0.262%
same,HDX difference (Da),[32],0.0549 Da
same,HDX difference (%D),[33],0.265%
same,HDX difference (Da),[33],0.0556 Da
same,HDX difference (%D),[34],-0.134%
same,HDX difference (Da),[34],-0.0282 Da
same,HDX difference (%D),[35],-0.22%
same,HDX difference (Da),[35],-0.0463 Da
same,HDX difference (%D),[36],-0.43%
same,HDX difference (Da),[36],-0.04 Da
same,HDX difference (%D),[37],0.2%
same,HDX difference (Da),[37],0.0181 Da
